# Laboratory results as given in patent publication US11364248B2 (AMGEN INC., priority 2017, dated 2022).
# Where two headings read alike, the source gives them in different places.
# How the values were obtained:
# [1] = target: Mcl-1/Bim interaction (Homo sapiens (Human), UniProt Q07820); experiment: Cell Free Mcl-1: Bim Affinity Assay (Mcl-1 HTRF); assay type: binding; settings: TR-FRET, recombinant human Mcl-1(171-327), biotin-Bim(51-76); read-out: Mel-1 HTRF IC50
# Procedure, shortened: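 TR-FRET competition assay: 0.1 nM His-tagged human Mcl-1(171-327) and 0.05 nM biotin-Bim(51-76) were pre-incubated 60 min with compound in 20 mM Hepes pH 7.5, 150 mM NaCl, Brij35, 1 mM DTT, then with Eu-anti-His/streptavidin-Xlent overnight. The 665/620 nm ratio was fitted by four-parameter model to IC50 (duplicates).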
# [2] = system: OPM-2; experiment: Cell Viability Assay (OPM-2 10 FBS); assay type: cell-based, human; settings: OPM-2 cells, CellTiter-Glo, read-out: OPM-2 10% FBS IC50 IP
# Procedure, shortened: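 OPM-2 myeloma cells seeded at 3000 cells/well in RPMI 1640 with 10% FBS and exposed to serially diluted compounds for 16 h at 37° C., 5% CO2.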
# Sequence of Mcl-1/Bim interaction (Q07820 171-327): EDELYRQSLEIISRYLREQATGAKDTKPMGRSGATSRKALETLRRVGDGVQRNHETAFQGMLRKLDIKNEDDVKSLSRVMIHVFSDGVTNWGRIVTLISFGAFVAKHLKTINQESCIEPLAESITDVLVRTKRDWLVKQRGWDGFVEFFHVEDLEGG
SMILES,IC50 [1],IC50 ([2]; 16 h),"IC50 ([2]; Homo sapiens, OPM-2, 16 h)"
"C[C@@H]1[C@@H](C)CCC[C@H](C2OCCO2)[C@@H]2CC[C@H]2CN2C[C@@]3(CCCc4cc(Cl)ccc43)COc3ccc(cc32)C(=O)NS1(=O)=O [Example 4, (1S,3′R,6′R,7′S,11′S,12′R)-6-chloro-7′-(1,3-dioxolan-2-yl)-11′,12′-dimethyl-3,4-dihydro-2H,15′H-spiro[naphthalene-1,22′-[20]oxa[13]thia[1,14]diazatetracyclo [14.7.2.0~3,6~.0~19,24~]pentacosa[16,18,24]trien]-15′-one 13′,13′-dioxide]",1.92 nM,2150 nM,–
"C[C@@H]1[C@@H](C)CCC[C@H](C2OCCCO2)[C@@H]2CC[C@H]2CN2C[C@@]3(CCCc4cc(Cl)ccc43)COc3ccc(cc32)C(=O)NS1(=O)=O [Example 7, (1S,3′R,6′R,7′S,11′S,12′R)-6-chloro-7′-(1,3-dioxan-2-yl)-11′,12′-dimethyl-3,4-dihydro-2H,15′H-spiro[naphthalene-1,22′-[20]oxa[13]thia[1,14]diazatetracyclo [14.7.2.0~3,6~.0~19,24~]pentacosa[16,18,24]trien]-15′-one 13′,13′-dioxide]",0.949 nM,1070 nM,–
"C[C@@H]1[C@@H](C)CCC[C@H](C2OCCCO2)[C@@H]2CC[C@H]2CN2C[C@@]3(CCCc4cc(Cl)ccc43)COc3ccc(cc32)C(=O)NS1(=O)=O [Example 8, (1S,3′R,6′R,7′S,11′S,12′R)-6-chloro-7′-(1,3-dioxan-2-yl)-11′,12′-dimethyl-3,4-dihydro-2H,15′H-spiro[naphthalene-1,22′-[20]oxa[13]thia[1,14]diazatetracyclo [14.7.2.0~3,6~.0~19,24~]pentacosa[16,18,24]trien]-15′-one 13′,13′-dioxide]",1.67 nM,7360 nM,–
"C[C@@H]1[C@@H](C)CCC[C@H]([C@H]2OC[C@H](O)CO2)[C@@H]2CC[C@H]2CN2C[C@@]3(CCCc4cc(Cl)ccc43)COc3ccc(cc32)C(=O)NS1(=O)=O [Example 11, (1S,3′R,6′R,7′S,11′S,12′R)-6-chloro-7′-(trans-5-hydroxy-1,3-dioxan-2-yl)-11′,12′-dimethyl-3,4-dihydro-2H,15′H-spiro[naphthalene-1,22′-[20]oxa[13]thia[1,14]diazatetracyclo [14.7.2.0~3,6~.0~19,24~]pentacosa[16,18,24]trien]-15′-one 13′,13′-dioxide]",0.29 nM,260 nM,–
"C[C@@H]1[C@@H](C)CCC[C@H]([C@H]2OC[C@H](O)CO2)[C@@H]2CC[C@H]2CN2C[C@@]3(CCCc4cc(Cl)ccc43)COc3ccc(cc32)C(=O)NS1(=O)=O [Example 12, (1S,3′R,6′R,7′S,11′S,12′R)-6-chloro-7′-(trans-5-hydroxy-1,3-dioxan-2-yl)-11′,12′-dimethyl-3,4-dihydro-2H,15′H-spiro[naphthalene-1,22′-[20]oxa[13]thia[1,14]diazatetracyclo [14.7.2.0~3,6~.0~19,24~]pentacosa[16,18,24]trien]-15′-one 13′,13′-dioxide]",0.382 nM,668 nM,–
"C[C@@H]1[C@@H](C)CCC[C@H]([C@H]2OC[C@H](O)CO2)[C@@H]2CC[C@H]2CN2C[C@@]3(CCCc4cc(Cl)ccc43)COc3ccc(cc32)C(=O)NS1(=O)=O [Example 13, (1S,3′R,6′R,7′S,11′S,12′R)-6-chloro-7′-(trans-5-hydroxy-1,3-dioxan-2-yl)-11′,12′-dimethyl-3,4-dihydro-2H,15′H-spiro[naphthalene-1,22′-[20]oxa[13]thia[1,14]diazatetracyclo [14.7.2.0~3,6~.0~19,24~]pentacosa[16,18,24]trien]-15′-one 13′,13′-dioxide]",0.555 nM,635 nM,–

# The next lines start with results.
IC50 [1],SMILES,IC50 ([2]; 16 h),"IC50 ([2]; Homo sapiens, OPM-2, 16 h)"
0.765 nM,"C[C@@H]1[C@@H](C)CCC[C@H]([C@H]2OC[C@H](O)CO2)[C@@H]2CC[C@H]2CN2C[C@@]3(CCCc4cc(Cl)ccc43)COc3ccc(cc32)C(=O)NS1(=O)=O [Example 14, (1S,3′R,6′R,7′S,11′S,12′R)-6-chloro-7′-(trans-5-hydroxy-1,3-dioxan-2-yl)-11′,12′-dimethyl-3,4-dihydro-2H,15′H-spiro[naphthalene-1,22′-[20]oxa[13]thia[1,14]diazatetracyclo [14.7.2.0~3,6~.0~19,24~]pentacosa[16,18,24]trien]-15′-one 13′,13′-dioxide]",1990 nM,–
1.05 nM,"C[C@@H]1[C@@H](C)CCC[C@H]([C@H]2OC[C@@H](N3CCCC3)CO2)[C@@H]2CC[C@H]2CN2C[C@@]3(CCCc4cc(Cl)ccc43)COc3ccc(cc32)C(=O)NS1(=O)=O [Example 19, (1S,3′R,6′R,7′S,11′S,12′R)-6-chloro-11′,12′-dimethyl-7′-(cis-5-(1-pyrrolidinyl)-1,3-dioxan-2-yl)-3,4-dihydro-2H,15′H-spiro[naphthalene-1,22′-[20]oxa[13]thia[1,14]diazatetracyclo [14.7.2.0~3,6~.0~19,24~]pentacosa[16,18,24]trien]-15′-one 13′,13′-dioxide]",527 nM,–
0.444 nM,"C[C@@H]1[C@@H](C)CCC[C@H]([C@H]2OC[C@@H](N3CCCC3)CO2)[C@@H]2CC[C@H]2CN2C[C@@]3(CCCc4cc(Cl)ccc43)COc3ccc(cc32)C(=O)NS1(=O)=O [Example 22, (1S,3′R,6′R,7′S,11′S,12′R)-6-chloro-11′,12′-dimethyl-7′-(cis-5-(1-pyrrolidinyl)-1,3-dioxan-2-yl)-3,4-dihydro-2H,15′H-spiro[naphthalene-1,22′-[20]oxa[13]thia[1,14]diazatetracyclo [14.7.2.0~3,6~.0~19,24~]pentacosa[16,18,24]trien]-15′-one 13′,13′-dioxide]",65 nM,–
0.37 nM,"CCN[C@H]1CO[C@H]([C@H]2CCC[C@H](C)[C@@H](C)S(=O)(=O)NC(=O)c3ccc4c(c3)N(C[C@@H]3CC[C@H]32)C[C@@]2(CCCc3cc(Cl)ccc32)CO4)OC1 [Example 27, (1S,3′R,6′R,7′S,11′S,12′R)-6-chloro-7′-(trans-5-(ethylamino)-1,3-dioxan-2-yl)-11′,12′-dimethyl-3,4-dihydro-2H,15′H-spiro[naphthalene-1,22′-[20]oxa[13]thia[1,14]diazatetracyclo [14.7.2.0~3,6~.0~19,24~]pentacosa[16,18,24]trien]-15′-one 13′,13′-dioxide]",–,155 nM
0.477 nM,"CCN(CC)[C@H]1CO[C@H]([C@H]2CCC[C@H](C)[C@@H](C)S(=O)(=O)NC(=O)c3ccc4c(c3)N(C[C@@H]3CC[C@H]32)C[C@@]2(CCCc3cc(Cl)ccc32)CO4)OC1 [Example 28, (1S,3′R,6′R,7′S,11′S,12′R)-6-chloro-7′-(trans-5-(diethylamino)-1,3-dioxan-2-yl)-11′,12′-dimethyl-3,4-dihydro-2H,15′H-spiro[naphthalene-1,22′-[20]oxa[13]thia[1,14]diazatetracyclo [14.7.2.0~3,6~.0~19,24~]pentacosa[16,18,24]trien]-15′-one 13′,13′-dioxide]",–,403 nM
0.217 nM,"CC(=O)N1C[C@@H]2O[C@@H]([C@H]3CCC[C@H](C)[C@@H](C)S(=O)(=O)NC(=O)c4ccc5c(c4)N(C[C@@H]4CC[C@H]43)C[C@@]3(CCCc4cc(Cl)ccc43)CO5)O[C@@H]2C1 [Example 36, (1S,3′R,6′R,7′S,11′S,12′R)-7′-((2r,3aR,6aS)-5-acetyltetrahydro-3aH-[1,3]dioxolo[4,5-c]pyrrol-2-yl)-6-chloro-11′,12′-dimethyl-3,4-dihydro-2H,15′H-spiro[naphthalene-1,22′-[20]oxa[13]thia[1,14]diazatetracyclo [14.7.2.0~3,6~.0~19,24~]pentacosa[16,18,24]trien]-15′-one 13′,13′-dioxide]",169 nM,–
0.098 nM,"CC(=O)N1C[C@@H]2O[C@H]([C@H]3CCC[C@H](C)[C@@H](C)S(=O)(=O)NC(=O)c4ccc5c(c4)N(C[C@@H]4CC[C@H]43)C[C@@]3(CCCc4cc(Cl)ccc43)CO5)O[C@@H]2C1 [Example 37, (1S,3′R,6′R,7′S,11′S,12′R)-7′-((2s,3aR,6aS)-5-acetyltetrahydro-3aH-[1,3]dioxolo[4,5-c]pyrrol-2-yl)-6-chloro-11′,12′-dimethyl-3,4-dihydro-2H,15′H-spiro[naphthalene-1,22′-[20]oxa[13]thia[1,14]diazatetracyclo [14.7.2.0~3,6~.0~19,24~]pentacosa[16,18,24]trien]-15′-one 13′,13′-dioxide]",148 nM,–
0.537 nM,"CC(=O)N1C[C@@H]2O[C@@H]([C@H]3CCC[C@H](C)[C@@H](C)S(=O)(=O)NC(=O)c4ccc5c(c4)N(C[C@@H]4CC[C@H]43)C[C@@]3(CCCc4cc(Cl)ccc43)CO5)O[C@@H]2C1 [Example 38, (1S,3′R,6′R,7′S,11′S,12′R)-7′-((2r,3aR,6aS)-5-acetyltetrahydro-3aH-[1,3]dioxolo[4,5-c]pyrrol-2-yl)-6-chloro-11′,12′-dimethyl-3,4-dihydro-2H,15′H-spiro[naphthalene-1,22′-[20]oxa[13]thia[1,14]diazatetracyclo [14.7.2.0~3,6~.0~19,24~]pentacosa[16,18,24]trien]-15′-one 13′,13′-dioxide]",819 nM,–
0.577 nM,"C[C@@H]1[C@@H](C)CCC[C@H]([C@H]2OC[C@](N)(CO)CO2)[C@@H]2CC[C@H]2CN2C[C@@]3(CCCc4cc(Cl)ccc43)COc3ccc(cc32)C(=O)NS1(=O)=O [Example 40, (1S,3′R,6′R,7′S,11′S,12′R)-7′-(cis-5-amino-5-(hydroxymethyl)-1,3-dioxan-2-yl)-6-chloro-11′,12′-dimethyl-3,4-dihydro-2H,15′H-spiro[naphthalene-1,22′-[20]oxa[13]thia[1,14]diazatetracyclo [14.7.2.0~3,6~.0~19,24~]pentacosa[16,18,24]trien]-15′-one 13′,13′-dioxide]",1560 nM,–
